Measured values published in ChEMBL document CHEMBL1201861, “Genomics of Drug Sensitity in Cancer screening data, Wellcome Trust Sanger Institute”.

Assays:
DMS-79 = assay: cells; format: functional, cell-based, Homo sapiens; details: Homo sapiens, DMS-79
Description: SANGER: Inhibition of human DMS-79 cell growth in a cell viability assay.

SW900 = assay: cells; format: functional, cell-based; details: Homo sapiens;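 also: IC50 is the concentration that inhibits SW900 cell growth, measured by a cell viability assay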
Description: SANGER: Inhibition of human SW900 cell growth in a cell viability assay.

NCI-H1651 = assay: cells; format: functional, cell-based; details: Homo sapiens;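 also: Read-out is a cell viability assay, with IC50 expressing inhibition of NCI-H1651 cell growth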
Description: SANGER: Inhibition of human NCI-H1651 cell growth in a cell viability assay.

OC-314 = assay: cells; format: functional, cell-based; details: Homo sapiens
Description: SANGER: Inhibition of human OC-314 cell growth in a cell viability assay.

DoTc2-4510 = assay: cells; format: functional, cell-based; details: Homo sapiens
LU-135 = assay: cells; format: functional, cell-based; details: Homo sapiens
Description: SANGER: Inhibition of human LU-135 cell growth in a cell viability assay.

NCI-H1793 = assay: cells; format: functional, cell-based; details: Homo sapiens;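 also: cell growth inhibition, read out by a cell viability assay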
Description: SANGER: Inhibition of human NCI-H1793 cell growth in a cell viability assay.

HLE = assay: cells; format: functional, cell-based; details: Homo sapiens;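 also: growth inhibition of human HLE cells, read out by a cell viability assay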
Description: SANGER: Inhibition of human HLE cell growth in a cell viability assay.

HCC 2998 = assay: cells; format: functional, cell-based; details: Homo sapiens;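 also: growth inhibition of human HCC2998 cells, measured with a cell viability read-out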
Description: SANGER: Inhibition of human HCC2998 cell growth in a cell viability assay.

H-EMC-SS = assay: cells; format: functional, cell-based; details: Homo sapiens
Description: SANGER: Inhibition of human H-EMC-SS cell growth in a cell viability assay.

LU-99A = assay: cells; format: functional, cell-based; details: Homo sapiens;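 also: growth inhibition of LU-99A cells, read out with a cell viability assay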
Description: SANGER: Inhibition of human LU-99A cell growth in a cell viability assay.

G-361 = assay: cells; format: functional, cell-based; details: Homo sapiens
ECC10 = assay: cells; format: functional, cell-based; details: Homo sapiens;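 also: growth inhibition of ECC10 cells, read out by a cell viability assay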
Description: SANGER: Inhibition of human ECC10 cell growth in a cell viability assay.

HCC1419 = assay: cells; format: functional, cell-based; details: Homo sapiens;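 also: growth inhibition of human HCC1419 cells, read out as cell viability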
Description: SANGER: Inhibition of human HCC1419 cell growth in a cell viability assay.

NCI-H2009 = assay: cells; format: functional, cell-based; details: Homo sapiens;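 also: cell viability assay measuring inhibition of NCI-H2009 cell growth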
Description: SANGER: Inhibition of human NCI-H2009 cell growth in a cell viability assay.

Capan-2 = assay: cells; format: functional, cell-based; details: Homo sapiens;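 also: Capan-2 cell growth inhibition, read out with a viability assay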
Description: SANGER: Inhibition of human Capan-2 cell growth in a cell viability assay.

NCI-H2228 = assay: cells; format: functional, cell-based; details: Homo sapiens;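 also: growth inhibition of human NCI-H2228 cells, read out by a cell viability assay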
Description: SANGER: Inhibition of human NCI-H2228 cell growth in a cell viability assay.

OE19 = assay: cells; format: functional, cell-based; details: Homo sapiens;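 also: growth inhibition of OE19 cells, measured through a cell viability read-out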
Description: SANGER: Inhibition of human OE19 cell growth in a cell viability assay.

KYSE-150 cell line = assay: cells; format: functional, cell-based; details: Homo sapiens;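 also: growth inhibition of human KYSE-150 cells, read out with a cell viability assay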
Description: SANGER: Inhibition of human KYSE-150 cell growth in a cell viability assay.

TI-73 = assay: cells; format: functional, cell-based; details: Homo sapiens;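 also: cell viability assay measuring how much compounds suppress growth of the cultured cell line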
Description: SANGER: Inhibition of human TI-73 cell growth in a cell viability assay.

TGBC11TKB = assay: cells; format: functional, cell-based; details: Homo sapiens;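 also: growth inhibition of human TGBC11TKB cells, measured by a cell viability assay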
Description: SANGER: Inhibition of human TGBC11TKB cell growth in a cell viability assay.

EW-22 = assay: cells; format: functional, cell-based; details: Homo sapiens;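 also: growth inhibition of the EW-22 cell line, measured with a cell viability readout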
Description: SANGER: Inhibition of human EW-22 cell growth in a cell viability assay.

NCI-H1437 = assay: cells; format: functional, cell-based; details: Homo sapiens;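 also: growth inhibition of human NCI-H1437 cells, read out by a cell viability assay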
Description: SANGER: Inhibition of human NCI-H1437 cell growth in a cell viability assay.

U-118-MG = assay: cells; format: functional, cell-based; details: Homo sapiens
Description: SANGER: Inhibition of human U-118-MG cell growth in a cell viability assay.

NCI-H2030 = assay: cells; format: functional, cell-based; details: Homo sapiens;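 also: growth inhibition of human NCI-H2030 cells, read out by a cell viability assay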
Description: SANGER: Inhibition of human NCI-H2030 cell growth in a cell viability assay.

EFM-19 = assay: cells; format: functional, cell-based; details: Homo sapiens;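 also: growth inhibition of human EFM-19 cells, measured in a cell viability assay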
Description: SANGER: Inhibition of human EFM-19 cell growth in a cell viability assay.

ChaGo-K-1 = assay: cells; format: functional, cell-based; details: Homo sapiens;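 also: growth inhibition of ChaGo-K-1 cells, read out with a cell viability assay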
Description: SANGER: Inhibition of human ChaGo-K-1 cell growth in a cell viability assay.

RPMI-7951 = assay: cells; format: functional, cell-based; details: Homo sapiens
Description: SANGER: Inhibition of human RPMI-7951 cell growth in a cell viability assay.

BT-549 = assay: cells; format: functional, cell-based; details: Homo sapiens
Description: SANGER: Inhibition of human BT-549 cell growth in a cell viability assay.

YKG-1 = assay: cells; format: functional, cell-based; details: Homo sapiens;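 also: cell growth inhibition, read out with a viability assay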
Description: SANGER: Inhibition of human YKG-1 cell growth in a cell viability assay.

C32 = assay: cells; format: functional, cell-based; details: Homo sapiens;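 also: cell viability assay, with IC50 reflecting inhibition of C32 cell growth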
Description: SANGER: Inhibition of human C32 cell growth in a cell viability assay.

UACC-893 = assay: cells; format: functional, cell-based; details: Homo sapiens
Description: SANGER: Inhibition of human UACC-893 cell growth in a cell viability assay.

EFO-27 = assay: cells; format: functional, cell-based; details: Homo sapiens;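 also: growth inhibition of EFO-27 cells, read out with a cell viability assay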
Description: SANGER: Inhibition of human EFO-27 cell growth in a cell viability assay.

MKN-1 = assay: cells; format: functional, cell-based; details: Homo sapiens;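 also: growth inhibition of human MKN1 cells, read out by a cell viability measurement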
Description: SANGER: Inhibition of human MKN1 cell growth in a cell viability assay.

HSC-4 = assay: cells; format: functional, cell-based; details: Homo sapiens;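 also: growth inhibition of human HSC-4 cells, read out with a cell viability assay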
Description: SANGER: Inhibition of human HSC-4 cell growth in a cell viability assay.

CHP-134 = assay: SANGER: Inhibition of human CHP-134 cell growth in a cell viability assay.; format: functional, cell-based
Calu-1 = assay: SANGER: Inhibition of human Calu-1 cell growth in a cell viability assay.; format: functional, cell-based
RT-4 = assay: SANGER: Inhibition of human RT4 cell growth in a cell viability assay.; format: functional, cell-based
C-4-II = assay: SANGER: Inhibition of human C-4-II cell growth in a cell viability assay.; format: functional, cell-based
IPC-298 = assay: SANGER: Inhibition of human IPC-298 cell growth in a cell viability assay.; format: functional, cell-based
RPMI 8402 = assay: SANGER: Inhibition of human RPMI-8402 cell growth in a cell viability assay.; format: functional, cell-based; details: Homo sapiens, RPMI 8402
NCCIT = assay: SANGER: Inhibition of human NCCIT cell growth in a cell viability assay.; format: functional, cell-based; details: Homo sapiens, NCCIT
SU-DHL-1 = assay: SANGER: Inhibition of human SU-DHL-1 cell growth in a cell viability assay.; format: functional, cell-based; details: Homo sapiens, SU-DHL-1

SMILES	IC50 (SW900) [µM]	IC50 (NCI-H1651) [µM]	IC50 (OC-314) [µM]	IC50 (DoTc2-4510) [µM]	IC50 (LU-135) [µM]	IC50 (NCI-H1793) [µM]	IC50 (HLE) [µM]	IC50 (HCC 2998) [µM]	IC50 (H-EMC-SS) [µM]	IC50 (LU-99A) [µM]	IC50 (HCC1419) [µM]	IC50 (Capan-2) [µM]	IC50 (NCI-H2228) [µM]	IC50 (OE19) [µM]	IC50 (KYSE-150 cell line) [µM]	IC50 (TI-73) [µM]	IC50 (TGBC11TKB) [µM]	IC50 (EW-22) [µM]	IC50 (NCI-H1437) [µM]	IC50 (EFM-19) [µM]	also measured
NC(=O)c1ccc(N(C(N)=O)c2c(F)cccc2F)nc1-c1ccc(F)cc1F [VX-702]	> 2	> 2	> 2	> 2	> 2	> 2	> 2	> 2	> 2	> 2	> 2	> 2	> 2	> 2	> 2	> 2	> 2	> 2	> 2	> 2	IC50 (DMS-79): > 2 µM; IC50 (G-361): 1.5 µM; IC50 (ECC10): 0.654 µM; IC50 (NCI-H2009): > 2 µM; IC50 (U-118-MG): > 2 µM; IC50 (NCI-H2030): > 2 µM; IC50 (ChaGo-K-1): > 2 µM; IC50 (RPMI-7951): > 2 µM; IC50 (BT-549): > 2 µM; IC50 (YKG-1): > 2 µM; IC50 (C32): > 2 µM; IC50 (UACC-893): > 2 µM; IC50 (EFO-27): > 2 µM; IC50 (MKN-1): > 2 µM; IC50 (HSC-4): > 2 µM
O=C(NCCCNc1nc(Nc2cccc(NC(=O)N3CCCC3)c2)ncc1I)c1cccs1 [BX-795]	> 5	> 5	3.05	> 5	> 5	> 5	> 5	> 5	> 5	> 5	> 5	> 5	> 5	> 5	2.73	2.11	> 5	3.91	2.77	> 5	IC50 (CHP-134): 1.94 µM; IC50 (U-118-MG): > 5 µM; IC50 (NCI-H2030): > 5 µM; IC50 (ChaGo-K-1): > 5 µM; IC50 (RPMI-7951): 3.19 µM; IC50 (BT-549): 4.45 µM; IC50 (YKG-1): 1.77 µM; IC50 (C32): 1.76 µM; IC50 (UACC-893): > 5 µM; IC50 (EFO-27): > 5 µM; IC50 (MKN-1): > 5 µM
CS(=O)(=O)N1CCN(Cc2cc3nc(-c4cccc5[nH]ncc45)nc(N4CCOCC4)c3s2)CC1 [PICTILISIB]	> 4	> 4	> 4	> 4	> 4	> 4	> 4	> 4	> 4	> 4	2.21	> 4	1.85	> 4	> 4	> 4	> 4	2.25	> 4	1.62	IC50 (CHP-134): > 4 µM; IC50 (U-118-MG): > 4 µM; IC50 (NCI-H2030): 2.24 µM; IC50 (ChaGo-K-1): > 4 µM; IC50 (RPMI-7951): > 4 µM; IC50 (BT-549): > 4 µM; IC50 (YKG-1): 3.04 µM; IC50 (C32): 3.42 µM; IC50 (UACC-893): > 4 µM; IC50 (EFO-27): > 4 µM; IC50 (MKN-1): > 4 µM
CC1=C(/C=C/C(C)=C/C=C/C(C)=C/C(=O)O)C(C)(C)CCC1 [TRETINOIN]	> 10	> 10	> 10	> 10	> 10	> 10	> 10	> 10	> 10	> 10	> 10	> 10	> 10	> 10	> 10	> 10	> 10	> 10	> 10	> 10	IC50 (DMS-79): > 10 µM; IC50 (G-361): > 10 µM; IC50 (ECC10): 2.38 µM; IC50 (NCI-H2009): > 10 µM; IC50 (U-118-MG): > 10 µM; IC50 (NCI-H2030): > 10 µM; IC50 (ChaGo-K-1): > 10 µM; IC50 (RPMI-7951): > 10 µM; IC50 (BT-549): > 10 µM; IC50 (YKG-1): > 10 µM; IC50 (C32): > 10 µM; IC50 (UACC-893): > 10 µM; IC50 (EFO-27): > 10 µM; IC50 (MKN-1): > 10 µM; IC50 (HSC-4): > 10 µM
CO[C@@H]1[C@H](N(C)C(=O)c2ccccc2)C[C@H]2O[C@]1(C)n1c3ccccc3c3c4c(c5c6ccccc6n2c5c31)C(=O)NC4 [MIDOSTAURIN]	–	–	–	–	–	–	–	–	–	–	–	–	–	–	–	–	–	–	> 0.512	0.212	IC50 (Calu-1): > 0.512 µM; IC50 (RT-4): > 0.512 µM; IC50 (C-4-II): 0.349 µM; IC50 (IPC-298): > 0.512 µM; IC50 (RPMI 8402): > 0.512 µM; IC50 (G-361): 0.209 µM; IC50 (NCCIT): > 0.512 µM; IC50 (SU-DHL-1): > 0.512 µM; IC50 (HSC-4): > 0.512 µM
